How the values were obtained:
Xbp1 splicing = Xbp1 splicing (ER stress) by RT-PCR / Xbp1s level; assay type: cell-based, mouse
Method: We investigated another consequence of thapsigargin treatment, ER stress, for its possible association with NMD inhibition. Because thapsigargin-induced NMD inhibition occurred as early as 1 hour post-treatment, we examined cellular stress levels by measuring the splicing activity of X-box binding protein 1 (Xbp1). Xbp1 splicing rapidly responds to ER stress. As a part of the unfolded protein response (UPR) triggered by ER stress, the serine/threonine protein kinase/endoribonuclease inositol-requiring enzyme 1 (IRE1α) oligomerizes and activates its ribonuclease activity through trans-autophosphorylation (Rubio et al., 2011. J Cell Biol 193: 171-184; Samali et al., 2010. Int J Cell Biol 2010: 830307; van Schadewijk et al., 2012. Cell Stress Chaperones 17: 275-279; Hetz C. 2012. Nat Rev Mol Cell Biol 13: 89-102). Activated IRE1α excises a 26-nt intron of Xbp1 mRNA, resulting in a shorter isoform (Xbp1s) that encodes a potent transcriptional activator for the expression of chaperones. RT-PCR with primers flanking the 26-nt intron detected Xbp1 splicing at 1 hour after thapsigargin treatment (FIG. 3A). […] Since IRE1α is targeted by NMD (Karam et al., 2015. EMBO Rep 16: 599-609; Oren et al. 2014. EMBO Mol Med 6: 685-701), the Xbp1 intron excision could have been due to thapsigargin-induced NMD inhibition. […] Nevertheless, feedback between these two pathways may have occurred in the later phase (see below).
(§1) Neuro-2a (N2a) cells were maintained in N2a complete media consisting of L-glutamine-free Dulbecco's modified Eagle's medium (DMEM), 10% FBS and 1× GlutaMAX at 37° C. Thapsigargin (VWR, cat. no. 89161-410), ionomycin (Fisher Scientific, cat. no. AG-CN2-0416-M001) and ouabain octahydrate (Fisher Scientific, cat. no. 80055-364) were dissolved in DMSO and stored at −80° C. […]
Trizol (Life Technologies, cat. no. 15596-018) was directly added to the cells or mouse brain tissues to extract total RNA following the Trizol Reagent standard protocol. […] RNA concentrations were measured using a Nanodrop 2000c (Thermo Fisher). […]

Bip transcript = Bip transcript levels as reporter of ATF6α activity; assay type: cell-based, mouse
Source text: Perk knockdown attenuated thapsigargin-induced Xpb1s (FIG. 4E) probably due to the restoration of NMD activity and because NMD inhibits IRE1α to splice Xbp1 (Oren et al. 2014. EMBO Mol Med 6: 685-701; Karam et al., 2015. EMBO Rep 16: 599-609). […] The Xbp1s level in the thapsigargin-treated siPerk cells was still 6 to 8 fold higher than in DMSO-treated cells, indicative of potent IRE1a activity. We also examined Bip transcript levels as a reporter of ATF6α activity (FIG. 4F). […] In summary, in PERK-deficient cells, thapsigargin continued to activate IREα and ATF6α but no longer inhibited NMD.
as §1
Trizol (Life Technologies, cat. no. 15596-018) was directly added to the cells or mouse brain tissues to extract total RNA following the Trizol Reagent standard protocol. […] RNA concentrations were measured using a Nanodrop 2000c (Thermo Fisher). […] Relative expression (fold changes) was calculated using the ΔΔCt method. […]

Compound: Cn1cc(-c2ccc3c(c2)CCN3C(=O)Cc2cccc(C(F)(F)F)c2)c2c(N)ncnc21 [GSK2606414]
- thapsigargin-induced Xbp1s (Xbp1 splicing; thapsigargin plus GSK2606414): attenuating
- Bip transcripts (Bip transcript; thapsigargin plus GSK2606414): did not down-regulate

Compound: C/C=C(/C)C(=O)O[C@H]1C(C)=C2[C@H]([C@@H]1OC(=O)CCCCCCC)[C@@](C)(OC(C)=O)C[C@H](OC(=O)CCC)[C@@]1(O)[C@H]2OC(=O)[C@@]1(C)O [thapsigargin]
- time at which Xbp1 splicing was detected (Xbp1 splicing; 0.2 μM thapsigargin, N2a cells): 1 h
- concentration at which Xbp1 intron excision occurred (Xbp1 splicing; N2a cells, 5 hours post-treatment): 0.01 µM
- Bip transcript levels (Bip transcript; thapsigargin treatment, maintained with siPerk): significantly boosted

— patent US20180010188A1, “METHOD FOR DETECTING NONSENSE-MEDIATED RNA DECAY” (The Regents of the University of California, priority 2016, published 2018)
